# Experimental data reported in ChEMBL document CHEMBL1147530, “Antimalarial activities of (+)-deoxoartemisitene and its novel C-11, 13 derivatives” (Bioorg Med Chem Lett, 2004).
# Tests used:
# Plasmodium falciparum [1] = test: In vitro antimalarial activity against chloroquine-resistant Plasmodium falciparum K1; format: functional, organism-based
# Plasmodium falciparum [2] = test: In vitro antimalarial activity against chloroquine-sensitive Plasmodium falciparum 3D7; format: functional, organism-based
SMILES,IC50 (Plasmodium falciparum [1]),IC50 (Plasmodium falciparum [2])
C[C@@H]1CC[C@H]2[C@@H](COC[C@H]3CO[C@@H]4O[C@]5(C)CC[C@H]6[C@H](C)CC[C@@H]3[C@@]46OO5)CO[C@@H]3O[C@@]4(C)CC[C@@H]1[C@]32OO4,0.02 µg/mL,0.04 µg/mL
C[C@@H]1CC[C@H]2[C@@H](C(=O)O)CO[C@@H]3O[C@]4(C)CC[C@@H]1[C@]32OO4,0.65 µg/mL,1.09 µg/mL
C[C@@H]1CC[C@H]2[C@@H](CO)CO[C@@H]3O[C@]4(C)CC[C@@H]1[C@]32OO4,0.0006 µg/mL,< 0.0001 µg/mL
C=C1CO[C@@H]2O[C@]3(C)CC[C@H]4[C@H](C)CC[C@@H]1[C@@]24OO3,0.02 µg/mL,0.02 µg/mL
C[C@@H]1CC[C@H]2C(=O)CO[C@@H]3O[C@]4(C)CC[C@@H]1[C@]32OO4,0.006 µg/mL,0.02 µg/mL
C[C@@H]1CC[C@H]2[C@H](CBr)CO[C@@H]3O[C@]4(C)CC[C@@H]1[C@]32OO4,< 0.0001 µg/mL,0.0002 µg/mL
Cc1ccc(S(=O)(=O)OC[C@H]2CO[C@@H]3O[C@]4(C)CC[C@H]5[C@H](C)CC[C@@H]2[C@@]35OO4)cc1,0.05 µg/mL,0.3 µg/mL
C[C@@H]1CC[C@H]2[C@@H](C=O)CO[C@@H]3O[C@]4(C)CC[C@@H]1[C@]32OO4,3.01 µg/mL,0.12 µg/mL
C[C@@H]1CC[C@H]2[C@@H](COS(C)(=O)=O)CO[C@@H]3O[C@]4(C)CC[C@@H]1[C@]32OO4,0.06 µg/mL,0.09 µg/mL
C[C@@H]1CC[C@H]2[C@@H](CBr)CO[C@@H]3O[C@]4(C)CC[C@@H]1[C@]32OO4,0.003 µg/mL,0.01 µg/mL
C[C@@H]1CC[C@H]2[C@H](C=O)CO[C@@H]3O[C@]4(C)CC[C@@H]1[C@]32OO4,0.46 µg/mL,2.02 µg/mL
C[C@@H]1CC[C@H]2[C@@]3(CO[C@@H]4O[C@]5(C)CC[C@@H]1[C@]42OO5)CO3,0.01 µg/mL,0.03 µg/mL
CCO[C@H]1O[C@@H]2O[C@@]3(C)CC[C@H]4[C@H](C)CC[C@@H]([C@H]1C)[C@@]24OO3 [ARTEMOTIL],< 0.0001 µg/mL,< 0.0001 µg/mL
C[C@@H]1CC[C@H]2[C@H](CO)CO[C@@H]3O[C@]4(C)CC[C@@H]1[C@]32OO4,0.05 µg/mL,0.06 µg/mL
C[C@@H]1CC[C@@H]2[C@]34OO[C@@](C)(CC[C@@H]13)O[C@H]4OC[C@]2(C)O,0.05 µg/mL,0.07 µg/mL
C[C@@H]1CC[C@H]2[C@@H](C)C(=O)O[C@@H]3O[C@@]4(C)CC[C@@H]1[C@]32OO4 [ARTEMISININ],0.002 µg/mL,0.01 µg/mL
C[C@H]1[C@H](OC(=O)CCC(=O)O)O[C@@H]2O[C@@]3(C)CC[C@H]4[C@H](C)CC[C@@H]1[C@@]24OO3 [ARTESUNATE],0.0006 µg/mL,0.0002 µg/mL
